The subject of one series is HePG2 cells. The series is described as follows: Cytotoxicity (LDH release, ATP level) in HePG2 cells. Type of series: cell-based. The following applies: 10 nM to 300 μM; 4 hrs; DMSO 1%. The method, then:
(§1) HePG2 and AML-12 cells are seeded and a dose-response of the compound is performed at various concentrations. Cells are stimulated and the supernatant is used to perform LDH release as a measure of necrosis while the cells are lysed to detect ATP levels for determining cell viability.
(§2) Cytotoxicity: 20000 HePG2 and AML-12 cells were seeded in 96 well plate (Viewplate PerkinElmer). Dose-response of the compound in Table 2 was performed using HP D300 digital dispenser, ranging from 10 nM to 300 μM with constant DMSO 1% in medium. Cells were stimulated for 4 hrs at 37° C.; the supernatant was used to perform LDH release (Cytotox-one, Promega) as a measure of necrosis while the cells were lysed to detect ATP level for determining cell viability (Celltiter-glo, Promega) according to manufacturer's instructions.
A general note: LDH leaks from cells whose membrane has failed.

The next series concerns the target hERG potassium channel (Homo sapiens (Human), UniProt Q12809). Briefly: Predictor hERG assay, fluorescence polarization tracer displacement. The following applies: hERG channel affinity binding; DMSO 1%. From the text: The Predictor hERG assay kit is stably transfected with hERG potassium channel and a high-affinity red fluorescent hERG channel ligand and is used for the determination of hERG channel affinity binding of compounds of Formula (I), Formula (Ia), Formula (Ib), Formula (II), or Formula (III), or a pharmaceutically acceptable salt thereof. Compounds that bind to the hERG channel protein (competitors) are identified by their ability to displace the tracer which results in a lower fluorescence polarization.
The Predictor hERG assay kit (Invitrogen), containing membrane preparations from Chinese hamster ovary cells stably transfected with hERG potassium channel and a high-affinity red fluorescent hERG channel ligand (tracer), was used for the determination of hERG channel affinity binding of the test compounds in Table 2. Compounds that bind to the hERG channel protein (competitors) were identified by their ability to displace the tracer, resulting in a lower fluorescence polarization. The final concentration of DMSO in each well was maintained at 1%. The assays were performed according to the manufacturer's protocol (Invitrogen).

A further series deals with AML-12 cells. The series is described as follows: Cytotoxicity (LDH release, ATP level) in AML-12 cells. Conditions: 10 nM to 300 μM; 4 hrs; DMSO 1%. Type of series: cell-based, mouse. The method, then:
as §1, §2

A further series has as its system Caspase 3/7. The series is described as follows: Modulation of caspase 3/7 activity in MDCK cells injured with cisplatin. Type of series: cell-based. The protocol:
MDCK cells are cultured in base medium to a final concentration of 10%. Cells are plated into 96 wells and 24 hours after cell plating the medium is changed with fresh medium supplemented with 1% FBS. Cisplatin is then used to induce cell injury. Different concentrations of Formula (I), Formula (Ia), Formula (Ib), Formula (II), or Formula (III), or a pharmaceutically acceptable salt thereof (in DMSO) are added in combination with cisplatin or prior to adding cisplatin. Caspase 3/7 activity (Promega) is determined according to standard procedures using a luminescent signal readout on a plate reader. Each experiment/condition is performed in triplicate. Caspase activity is analyzed as percentage effect normalized to the cisplatin alone and vehicle treated cells.
MDCK cells (MDCK (NBL-2) ATCC® CCL-34™) were cultured in base medium ATCC-formulated Eagle's Minimum Essential Medium, Catalog No. 30-2003 with fetal bovine serum (FBS) to a final concentration of 10%. […]
Caspase 3/7 activity (Promega) was determined according to standard procedures using a luminescent signal readout on a Victor V plate reader (PerkinElmer). […]
Caspase activity was analyzed as percentage effect normalized to the cisplatin alone (100%) and vehicle treated cells as 0% of caspase activity. Data were analyzed by GraphPad Software. […]

Sequence of hERG potassium channel (Q12809 whole entry): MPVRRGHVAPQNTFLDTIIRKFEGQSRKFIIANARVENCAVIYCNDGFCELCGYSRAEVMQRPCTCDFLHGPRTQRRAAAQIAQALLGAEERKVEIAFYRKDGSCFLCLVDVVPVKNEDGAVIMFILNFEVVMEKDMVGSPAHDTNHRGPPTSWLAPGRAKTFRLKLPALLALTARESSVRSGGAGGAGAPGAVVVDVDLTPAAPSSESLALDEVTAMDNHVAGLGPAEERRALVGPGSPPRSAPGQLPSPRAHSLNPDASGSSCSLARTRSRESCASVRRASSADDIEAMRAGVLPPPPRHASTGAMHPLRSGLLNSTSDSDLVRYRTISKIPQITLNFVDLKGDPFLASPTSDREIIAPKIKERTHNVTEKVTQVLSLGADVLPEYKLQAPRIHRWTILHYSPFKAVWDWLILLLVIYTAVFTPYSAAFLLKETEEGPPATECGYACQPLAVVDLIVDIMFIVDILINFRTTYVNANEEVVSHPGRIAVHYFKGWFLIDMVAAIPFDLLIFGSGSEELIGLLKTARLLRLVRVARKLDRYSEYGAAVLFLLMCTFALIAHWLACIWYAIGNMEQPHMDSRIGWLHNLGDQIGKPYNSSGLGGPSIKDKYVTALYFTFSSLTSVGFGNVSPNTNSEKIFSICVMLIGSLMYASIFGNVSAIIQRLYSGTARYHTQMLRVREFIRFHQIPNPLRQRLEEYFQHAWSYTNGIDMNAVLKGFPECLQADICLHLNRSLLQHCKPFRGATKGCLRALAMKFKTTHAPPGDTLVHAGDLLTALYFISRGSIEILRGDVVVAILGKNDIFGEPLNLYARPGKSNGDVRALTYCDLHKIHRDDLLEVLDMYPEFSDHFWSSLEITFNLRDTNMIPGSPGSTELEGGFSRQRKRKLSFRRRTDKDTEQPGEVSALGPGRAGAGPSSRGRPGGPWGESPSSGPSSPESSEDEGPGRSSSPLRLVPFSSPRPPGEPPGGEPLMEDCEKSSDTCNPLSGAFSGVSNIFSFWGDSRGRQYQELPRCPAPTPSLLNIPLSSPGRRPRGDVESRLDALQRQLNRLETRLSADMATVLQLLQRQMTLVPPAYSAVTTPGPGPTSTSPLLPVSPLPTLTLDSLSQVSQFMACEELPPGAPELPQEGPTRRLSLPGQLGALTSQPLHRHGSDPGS

As for `N#Cc1c(-c2nccs2)nc(SCc2cccc(C(=O)O)c2)[nH]c1=O` [Compound 5], the “Cytotoxicity Hep-G2” value with HePG2 cells is recorded as “Not Toxic”. In addition, at hERG potassium channel, the hERG result is on record as “No Activity”. For the same compound, in the series on AML-12 cells, the “Cytotoxicity AML-12” value is on record as “Not Toxic”.

With `N#Cc1c(-c2ccc(Cl)cc2)nc(SCc2ccc(C(=O)O)cc2)[nH]c1=O` [Compound 8], in the series with HePG2 cells, the “Cytotoxicity Hep-G2” value was “Not Toxic”. Also, the hERG result at hERG potassium channel is “No Activity”. The “Cytotoxicity AML-12” value in the series with AML-12 cells is recorded as “Not Toxic”.

Turning to `O=C(O)c1cccc(CSc2nc(-c3ccccc3)c(Br)c(=O)[nH]2)c1` [Compound 11], the “Cytotoxicity Hep-G2” value in the series with HePG2 cells is given as “Not Toxic”. Further, the hERG result on hERG potassium channel is given as “No Activity”. For the same compound, the “Cytotoxicity AML-12” value in the series with AML-12 cells is recorded as “Not Toxic”.

Consider `N#Cc1c(-c2cccs2)nc(SCc2cccc(CC(=O)O)c2)[nH]c1=O` [Compound 18], for which the “activity of caspase 3/7 induced by cisplatin” value in the series with Caspase 3/7 (cisplatin 50 μM for 16 hrs) was “decreases, in significant manner”. Besides, the “concentration with significant decrease of caspase activity vs cisplatin alone (p<0.001)” value with Caspase 3/7 (in combination with cisplatin) worked out at 100 µM.

Take `N#Cc1c(-c2cccs2)nc(SCc2cccc(-c3noc(=O)[nH]3)c2)[nH]c1=O` [Compound 19]: the “Cytotoxicity Hep-G2” value in the series with HePG2 cells is “Not Toxic”. Besides, the hERG entry at hERG potassium channel is recorded as “No Activity”. Also, the “Cytotoxicity AML-12” value in the series on AML-12 cells is listed as “Not Toxic”.

Source of the values: patent publication US9708272B2, “Inhibitors of α-amino-β-carboxymuconic acid semialdehyde decarboxylase” (TES Pharma S.r.l., priority 2014, dated 2017).
